Test results taken from US8394773B2, “Use of an alkyl glycoside or of a mixture of alkyl glycosides having anti-ageing and/or calming properties as active agents in cosmetic compositions, and methods of cosmetic care using said compositions” (LVMH Recherche, priority 2008, dated 2013).

Experiments:
Il-8 = assay: Quantification of the release of Il-8 into culture supernatants of HaCaT keratinocytes stimulated with Il-1 beta (ELISA, related to total proteins); assay type: cell-based, human; conditions: for Inhibitory activity (%) (release of Il-8) / Liberation Il-8 (%) / pg IL8/mg prot: alkyl glycoside alone at 1 μM, 24 hours; for Inhibitory activity (%) (release of Il-8) / Liberation Il-8 (%): HaCaT + Il-1 beta; for Liberation Il-8 (%): control (-) = 100; for pg IL8/mg prot: HaCaT stimulated with Il-1 beta 25 ng/ml; for anti-Il-8 activity, in words: compounds tested alone, 1 μM
Description: (§1) The release of the Il-8 and PGE2 markers into cell line culture supernatants of immortalized keratinocytes (HaCaT), stimulated for 24 hours in the presence of oligosaccharides is quantified.
(§2) HaCaTs are cultured to 80% confluence.
(§3) A treatment is carried out over 24 hours with the product to be evaluated with, in the case of Il-8 alone, a parallel stimulation with interleukin-1.
(§4) The culture supernatants containing the markers are collected and stored at −20° C. up to the day of the assay.
(§5) The assay is carried out with the aid of a kit specific for each of the markers.
The assay of human Il-8 by means of the ELISA AbC204/3 kit (Abcys).
(§6) These HaCaTs are inoculated at the rate of 10 000 cells/well (supplemented KSFM culture medium, Gibco) in a 96-well microplate.
(§7) The plate is placed in an incubator (37° C. and 5% CO2) for 24 hours.
(§8) The oligosaccharides, initially in the form of a 1 mM stock solution in DMSO, are exposed to the cells after suitable dilution in culture medium.
In parallel, for Il-8, the cells are stimulated with Il-1 beta at 25 ng/ml.
A column is treated with cholecalciferol (vitamin D3) at 0.39 μg/ml and stimulated with Il-1 beta, as positive control inhibiting the release of Il-8.
A control column is not treated and stimulated with Il-1 beta.
(§9) Each concentration of product, the positive control and the control without treatment, are evaluated on 4 or 6 wells of HaCaT.
(§10) After 24 hours of treatment, the culture supernatants are collected and stored at −20° C.
(§11) The assay is carried out according to the protocol described in each of the kits, by an immunoenzymatic test which makes it possible to assay, by spectrophotometric measurement at 450 nm, the respective quantities of Il-8 and of PGE2 present in the supernatants.
(§12) The absorbance (OD) values obtained for the 2-fold dilution series for IL-8 standard and PGE2 standard (7 concentrations, in duplicate) are plotted on a logarithmic graph.
(§13) The known concentrations of IL-8 and PGE2, expressed in pg/ml, are plotted on the x-axis and the absorbance values on the y-axis, in order to obtain a straight line.
(§14) The absorbance values measured for each sample are in turn plotted on the graph, in order to determine the respective IL-8 and PGE2 concentrations, expressed in pg/ml.
(§15) The assay (in mg/ml) of the total proteins present in the cellular pellets, after treatment or non-treatment of the HaCaTs, makes it possible to relate the assay of IL-8 and of PGE2 to the quantity of proteins in each well of cells, expressed in picograms (pg) of markers per milligram (mg) of proteins.
(§16) The absorbance values for the 6 wells are converted to mg of proteins per well of HaCaT by means of the straight line obtained by the calibration series (quantity of proteins known for an absorbance determined at 570 nm).
(§17) Finally, for each well and each treatment condition, a quantitative assay of the release of Il-8 and of PGE2 is obtained, in pg/ml.
This assay is related to a quantity of proteins, expressed in mg/ml. The final quantitative result for Il-8 is therefore expressed in pg/mg of proteins.
The percentage inhibition of the production of IL-8 is calculated as follows: […]
The test is carried out at a concentration of alkyl glycosides equal to 1 μM, after dilution in the culture medium, the negative control is pure DMSO.

PGE2 = assay: Quantification of the release of PGE2 into culture supernatants of HaCaT keratinocytes (immunoenzymatic kit, related to total proteins); assay type: cell-based; conditions: for Inhibitory activity (%) (release of PGE2) / pg PGE2/mg prot / Liberation PGE2 (%): alkyl glycoside alone at 1 μM, 24 hours, HaCaT; for Liberation PGE2 (%): control (-) = 100
Description: PGE2 is an important marker of inflammatory response linked to tissue damage. It is produced by a wide variety of cells including monocytes, macrophages or keratinocytes.
as §1, §2, §3, §4, §5
Assay of PGE2 by means of the Parameter PGE2 kit (R&D system).
as §6, §7, §8
A column is treated with indomethacin as positive control inhibiting the release of PGE2.
as §9, §10, §11, §12, §13, §14, §15, §16, §17
The test is carried out at a concentration of alkyl glycosides equal to 1 μM, after dilution in the culture medium.

Compound | Inhibitory activity (%) (release of Il-8) (Il-8) | Liberation Il-8 (%) (Il-8) | pg IL8/mg prot (Il-8) [pg/mg prot] | Inhibitory activity (%) (release of PGE2) (PGE2) | pg PGE2/mg prot (PGE2) [pg/mg prot] | Liberation PGE2 (%) (PGE2) | anti-Il-8 activity, in words (Il-8) | anti-Il-8 activity, in words (Il-8; listed as dodecyl maltotrioside) | PGE2 inhibiting activity, in words (PGE2; compounds tested alone, 1 μM)
CCCCCCCCCCCCO[C@@H]1O[C@H](CO)[C@@H](O[C@H]2O[C@H](CO)[C@@H](O)[C@H](O)[C@H]2O)[C@H](O)[C@H]1O [DP2-12, dodecyl beta-D-maltoside] | 82.9 | 17.1 | 211.0 | 49.1 | 159.8 | 50.9 | – | – | –
CO[C@@H]1O[C@H](CO)[C@@H](O[C@H]2O[C@H](CO)[C@@H](O)[C@H](O)[C@H]2O)[C@H](O)[C@H]1O [DP2-1, methyl beta-D-maltoside] | 59.6 | 40.4 | 497.7 | 58.2 | 131.3 | 41.8 | – | – | –
CCCCCCCCCCCCO[C@@H]1O[C@H](CO)[C@@H](O)[C@H](O)[C@H]1O [DP1-12, n-dodecyl-beta-D-glucopyranoside, reference compound] | 24.6 | 75.4 | 930.3 | 52.2 | 150.0 | 47.8 | – | – | –
CCCCCCCCO[C@@H]1O[C@H](CO)[C@@H](O[C@H]2O[C@H](CO)[C@@H](O)[C@H](O)[C@H]2O)[C@H](O)[C@H]1O [DP2-8, octyl beta-D-maltoside] | 69.4 | 30.6 | 377.7 | 37.7 | 195.5 | 62.3 | – | – | –
CCCCCCCCO[C@@H]1O[C@H](CO)[C@@H](O)[C@H](O)[C@H]1O [DP1-8, n-Octyl-beta-D-glucopyranoside, reference compound] | 9.1 | 91.0 | 1121.6 | 0.3 | 312.8 | 99.7 | – | – | –
CO[C@@H]1O[C@H](CO)[C@@H](O[C@H]2O[C@H](CO)[C@@H](O[C@H]3O[C@H](CO)[C@@H](O)[C@H](O)[C@H]3O)[C@H](O)[C@H]2O)[C@H](O)[C@H]1O [DP3-1, methyl beta-D-maltotrioside] | 71.9 | 28.1 | 346.6 | 49.1 | 159.6 | 50.9 | – | – | –
CCCCCCCCCCCCO[C@@H]1O[C@H](CO)[C@@H](O[C@H]2O[C@H](CO)[C@@H](O[C@H]3O[C@H](CO)[C@@H](O)[C@H](O)[C@H]3O)[C@H](O)[C@H]2O)[C@H](O)[C@H]1O [DP3-12, dodecyl beta-D-maltotrioside] | 20.1 | 79.9 | 521.5 | 18.8 | 171.8 | 81.2 | acts on both markers | very small effect on the release of Il-8 | acts on both markers
